# Experiments:
# [1] = biological target: Cytochrome P450 2C9 (Homo sapiens, UniProt P11712); test: Inhibition of CYP2C9 (unknown origin); format: ADME
# [2] = biological target: Citron Rho-interacting kinase (Homo sapiens, UniProt O14578); test: Inhibition of CRIK (unknown origin)
# [3] = AUC (infinity) in mouse at 2 mg/kg, iv; format: ADME, organism-based; set-up: time infinity, route intravenous, dose 2 mg/kg; settings: in vivo
# [4] = Clearance in monkey at 2 mg/kg, iv; format: ADME, organism-based, Macaca mulatta; settings: rhesus monkey, in vivo
# [5] = Ratio of drug concentration in spinal cord to plasma in Sprague-Dawley rat at 30 mg/kg, po measured at 5.25 hrs post dose; format: ADME, organism-based
# [6] = Apparent elimination half life in monkey at 2 mg/kg, iv; format: ADME, organism-based, Macaca mulatta; settings: rhesus monkey, in vivo, read-out: betat1/2(app) (converted)
# [7] = Cmax in mouse at 3 mg/kg, po; format: ADME, organism-based; set-up: route oral, dose 3 mg/kg; settings: in vivo
# [8] = MRT in rat at 2 mg/kg, iv; format: ADME, organism-based; settings: in vivo
# [9] = tested on: Rattus norvegicus; test: Analgesic activity in CCI induced thermal hyperalgesia Sprague-Dawley rat model assessed as efficacy at 0.3 mg/kg, po measured at 5.75 hrs post dose; format: functional
# [10] = Drug concentration in naive Sprague-Dawley rat spinal cord at 10 mg/kg, po measured at 5.25 hrs post dose; format: ADME, organism-based; settings: read-out: Ct
# [11] = Ratio of drug concentration in spinal cord to plasma in CCI induced thermal hyperalgesia Sprague-Dawley rat model at 0.1 mg/kg, po measured at 5.75 hrs post dose; format: ADME, organism-based
# [12] = Permeability of compound at pH 7.4 measured after 4 hrs by PAMPA assay; format: ADME; settings: read-out: permeability
# [13] = Drug concentration in overnight fasted Sprague-Dawley rat spinal cord with streptozotocin induced diabetic peripheral neuropathic mechanical allodynia at 0.3 mg/kg, po measured at 5.5 hrs post dose; format: ADME, organism-based; settings: read-out: Ct
# [14] = biological target: T1, Cytochrome P450 3A4 (Homo sapiens, UniProt P08684); test: Time dependent inhibition of CYP3A4 (unknown origin) using BSF as substrate measured at 30 mins; format: ADME
# [15] = biological target: T2, AP2-associated protein kinase 1 (Homo sapiens, UniProt Q2M2I8); test: Inhibition of […] in HEK293F cells assessed as reduction in phospho mu2 formation incubated for 3 hrs by Western blot analysis; format: cell-based
# [16] = Metabolic stability in rat liver microsomes assessed as CYP450-mediated metabolism by measuring parent compound remaining at 0.5 uM incubated for 10 mins in presence of NADPH by LC-MS/MS analysis; format: ADME; settings: read-out: Stability
# [17] = biological target: MAP kinase-interacting serine/threonine-protein kinase 1 (Homo sapiens, UniProt Q9BUB5); test: Inhibition of MNK1 (unknown origin)
# [18] = AUC (infinity) in monkey at 2 mg/kg, iv; format: ADME, organism-based, Macaca mulatta; set-up: time infinity, route intravenous, dose 2 mg/kg; settings: rhesus monkey, in vivo
# [19] = biological target: Cytochrome P450 1A2 (Homo sapiens, UniProt P05177); test: Inhibition of CYP1A2 (unknown origin); format: ADME
# [20] = biological target: T1, Cytochrome P450 3A4; test: Time dependent inhibition of CYP3A4 (unknown origin) using MDZ as substrate measured at 5 mins; format: ADME
# [21] = AUC (infinity) in rat at 3 mg/kg, po; format: ADME, organism-based; set-up: route oral, time infinity, dose 3 mg/kg; settings: in vivo
# [22] = biological target: Voltage-gated inwardly rectifying potassium channel KCNH2 (Homo sapiens, UniProt Q12809); test: Inhibition of human ERG by patch clamp assay; format: toxicity
# [23] = AUC (infinity) in mouse at 3 mg/kg, po; format: ADME, organism-based; set-up: time infinity, route oral, dose 3 mg/kg; settings: in vivo
# [24] = Metabolic stability in mouse liver microsomes assessed as half life; format: ADME, Microsome
# [25] = AUC (infinity) in dog at 3 mg/kg, po; format: ADME, organism-based, Canis lupus familiaris; set-up: route oral, time infinity, dose 3 mg/kg; settings: in vivo
# [26] = Drug concentration in Sprague-Dawley rat spinal cord with CCI induced thermal hyperalgesia at 0.1 mg/kg, po measured at 5.75 hrs post dose; format: ADME, organism-based; settings: read-out: Ct
# [27] = Protein binding in mouse brain assessed as unbound fraction at 1 uM incubated for 4 hrs by LC-MS/MS analysis; format: ADME, tissue-based
# [28] = Protein binding in cynomolgus monkey plasma assessed as unbound fraction at 10 uM incubated for 5 hrs by LC-MS/MS analysis; format: ADME, cell-free, Macaca fascicularis
# [29] = biological target: Solute carrier family 22 member 6 (Homo sapiens, UniProt Q4U2R8); test: Inhibition of OAT1 (unknown origin)
# [30] = biological target: T2, AP2-associated protein kinase 1; test: Inhibition of GST-Xa tagged human AAK1 (30 to 330 residues) expresssed in bacteria using (5-FAM)-Aha-KEEQSQITSQVTGQIGWR-NH2 peptide as substrate incubated for 3 hrs in presence of ATP by electrophoretic analysis
# [31] = Oral bioavailability in monkey at 3 mg/kg; format: ADME, organism-based, Macaca mulatta; settings: rhesus monkey, in vivo
# [32] = Cmax in dog at 3 mg/kg, po; format: ADME, organism-based, Canis lupus familiaris; set-up: route oral, dose 3 mg/kg; settings: in vivo
# [33] = Cmax in Sprague-Dawley rat plasma with CCI induced thermal hyperalgesia at 0.1 mg/kg, po measured at 5.75 hrs post dose; format: ADME, organism-based; set-up: route oral, dose 0.1 mg/kg, time 5.75 hrs
# [34] = Protein binding in dog plasma assessed as unbound fraction at 10 uM incubated for 5 hrs by LC-MS/MS analysis; format: ADME, cell-free, Canis lupus familiaris
# [35] = Volume of distribution at steady state in mouse at 2 mg/kg, iv; format: ADME, organism-based; settings: in vivo, read-out: Vdss
# [36] = biological target: Cytochrome P450 2C19 (Homo sapiens, UniProt P33261); test: Inhibition of CYP2C19 (unknown origin); format: ADME
# [37] = Metabolic stability in human liver microsomes assessed as half life; format: ADME, Microsome
# [38] = tested on: Rattus norvegicus; test: Analgesic activity in streptozotocin induced diabetic peripheral neuropathic mechanical allodynia in overnight fasted Sprague-Dawley rat model assessed as reduction in pain response at 1 mg/kg, po measured after 5.5 hrs post treatment; format: functional; set-up: scale not given: the % may be the effect or the level left
# [39] = Volume of distribution at steady state in dog at 2 mg/kg, iv; format: ADME, organism-based, Canis lupus familiaris; settings: in vivo, read-out: Vdss
# [40] = Apparent elimination half life in rat at 2 mg/kg, iv; format: ADME, organism-based; settings: in vivo, read-out: betat1/2(app) (converted)
# [41] = Ratio of drug concentration in spinal cord to plasma in CCI induced thermal hyperalgesia Sprague-Dawley rat model at 1 mg/kg, po measured at 5.75 hrs post dose; format: ADME, organism-based
# [42] = Ratio of drug concentration in spinal cord to plasma in Sprague-Dawley rat at 10 mg/kg, po measured at 5.25 hrs post dose; format: ADME, organism-based
# [43] = Cmax in naive Sprague-Dawley rat plasma at 3 mg/kg, po measured at 5.25 hrs post dose; format: ADME, organism-based; set-up: route oral, time 5.25 hrs, dose 3 mg/kg
# [44] = Permeability across apical to basolateral side in human Caco-2 cells at 3 uM measured after 2 hrs by LC-MS/MS analysis; format: ADME, cell-based; settings: read-out: permeability
# [45] = AUC (infinity) in rat at 2 mg/kg, iv; format: ADME, organism-based; set-up: time infinity, route intravenous, dose 2 mg/kg; settings: in vivo
# [46] = biological target: T1, Cytochrome P450 3A4; test: Inhibition of CYP3A4 (unknown origin) using BFC as substrate; format: ADME
# T1 sequence (P08684 whole entry): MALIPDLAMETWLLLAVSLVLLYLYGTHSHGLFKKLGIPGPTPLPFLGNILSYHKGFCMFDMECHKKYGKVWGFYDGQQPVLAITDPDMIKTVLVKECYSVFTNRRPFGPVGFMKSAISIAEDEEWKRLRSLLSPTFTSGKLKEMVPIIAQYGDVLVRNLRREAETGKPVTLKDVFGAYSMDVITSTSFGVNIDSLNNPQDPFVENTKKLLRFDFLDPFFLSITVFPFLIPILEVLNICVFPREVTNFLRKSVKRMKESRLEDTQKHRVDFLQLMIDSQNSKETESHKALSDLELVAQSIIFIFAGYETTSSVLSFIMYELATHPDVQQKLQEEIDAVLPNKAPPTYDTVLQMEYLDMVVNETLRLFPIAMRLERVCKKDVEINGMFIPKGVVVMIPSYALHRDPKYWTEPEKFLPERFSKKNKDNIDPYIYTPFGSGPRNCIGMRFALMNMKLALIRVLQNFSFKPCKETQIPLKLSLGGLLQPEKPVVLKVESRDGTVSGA
# T2 sequence (Q2M2I8 whole entry): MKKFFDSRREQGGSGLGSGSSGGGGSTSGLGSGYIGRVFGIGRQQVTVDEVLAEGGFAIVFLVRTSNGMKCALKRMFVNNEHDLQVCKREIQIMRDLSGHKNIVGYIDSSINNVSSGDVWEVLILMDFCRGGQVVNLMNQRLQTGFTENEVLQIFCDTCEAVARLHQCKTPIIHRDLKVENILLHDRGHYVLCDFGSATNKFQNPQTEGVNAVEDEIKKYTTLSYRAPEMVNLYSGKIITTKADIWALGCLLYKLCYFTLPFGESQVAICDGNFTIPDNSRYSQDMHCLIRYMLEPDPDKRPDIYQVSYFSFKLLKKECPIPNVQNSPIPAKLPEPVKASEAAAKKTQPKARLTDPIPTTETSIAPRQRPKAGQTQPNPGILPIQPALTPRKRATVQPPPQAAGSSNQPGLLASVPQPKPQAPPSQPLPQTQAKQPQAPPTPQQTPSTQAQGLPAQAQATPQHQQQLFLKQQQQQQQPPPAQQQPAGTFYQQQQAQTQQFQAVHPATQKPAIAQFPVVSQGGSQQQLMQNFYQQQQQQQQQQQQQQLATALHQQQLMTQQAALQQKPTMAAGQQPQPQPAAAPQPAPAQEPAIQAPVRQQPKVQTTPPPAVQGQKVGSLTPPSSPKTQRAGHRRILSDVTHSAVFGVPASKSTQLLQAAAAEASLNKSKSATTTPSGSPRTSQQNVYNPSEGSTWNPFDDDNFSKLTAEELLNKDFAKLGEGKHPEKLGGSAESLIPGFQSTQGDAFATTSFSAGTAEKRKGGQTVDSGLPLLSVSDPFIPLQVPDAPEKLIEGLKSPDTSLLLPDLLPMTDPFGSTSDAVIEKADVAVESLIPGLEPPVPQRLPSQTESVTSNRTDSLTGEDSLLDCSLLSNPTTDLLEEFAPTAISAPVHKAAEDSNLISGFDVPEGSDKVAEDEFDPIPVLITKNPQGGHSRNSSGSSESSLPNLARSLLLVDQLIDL
# Cytochrome P450 2C9, sequence (P11712 whole entry): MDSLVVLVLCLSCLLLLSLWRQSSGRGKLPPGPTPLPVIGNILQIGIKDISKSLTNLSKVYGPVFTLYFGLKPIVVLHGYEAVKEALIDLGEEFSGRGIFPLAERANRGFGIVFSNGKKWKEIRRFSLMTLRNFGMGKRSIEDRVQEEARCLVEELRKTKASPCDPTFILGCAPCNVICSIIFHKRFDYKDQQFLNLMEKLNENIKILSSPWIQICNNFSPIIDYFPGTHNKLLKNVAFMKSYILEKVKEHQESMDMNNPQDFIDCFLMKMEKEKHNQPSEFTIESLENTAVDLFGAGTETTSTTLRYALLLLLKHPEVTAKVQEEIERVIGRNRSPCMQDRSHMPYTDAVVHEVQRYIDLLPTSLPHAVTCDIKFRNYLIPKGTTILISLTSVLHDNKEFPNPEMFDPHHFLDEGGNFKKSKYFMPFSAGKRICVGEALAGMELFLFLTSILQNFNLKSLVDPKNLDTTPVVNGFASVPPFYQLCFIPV
# Cytochrome P450 1A2, sequence (P05177 whole entry): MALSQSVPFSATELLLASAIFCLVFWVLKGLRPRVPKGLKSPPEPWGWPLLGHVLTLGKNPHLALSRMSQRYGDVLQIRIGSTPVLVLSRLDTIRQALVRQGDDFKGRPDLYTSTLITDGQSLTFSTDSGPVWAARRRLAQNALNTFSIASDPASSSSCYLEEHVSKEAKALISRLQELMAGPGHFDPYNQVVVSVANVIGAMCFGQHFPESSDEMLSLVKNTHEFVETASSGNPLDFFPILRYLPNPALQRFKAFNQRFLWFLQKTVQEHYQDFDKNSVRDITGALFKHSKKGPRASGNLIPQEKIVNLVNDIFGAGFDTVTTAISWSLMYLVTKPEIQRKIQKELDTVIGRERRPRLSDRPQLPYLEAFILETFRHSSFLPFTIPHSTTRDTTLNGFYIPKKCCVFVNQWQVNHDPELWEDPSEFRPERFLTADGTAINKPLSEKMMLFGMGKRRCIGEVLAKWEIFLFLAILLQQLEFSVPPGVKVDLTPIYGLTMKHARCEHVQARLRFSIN
# Solute carrier family 22 member 6, sequence (Q4U2R8 whole entry, the tested form may be a part): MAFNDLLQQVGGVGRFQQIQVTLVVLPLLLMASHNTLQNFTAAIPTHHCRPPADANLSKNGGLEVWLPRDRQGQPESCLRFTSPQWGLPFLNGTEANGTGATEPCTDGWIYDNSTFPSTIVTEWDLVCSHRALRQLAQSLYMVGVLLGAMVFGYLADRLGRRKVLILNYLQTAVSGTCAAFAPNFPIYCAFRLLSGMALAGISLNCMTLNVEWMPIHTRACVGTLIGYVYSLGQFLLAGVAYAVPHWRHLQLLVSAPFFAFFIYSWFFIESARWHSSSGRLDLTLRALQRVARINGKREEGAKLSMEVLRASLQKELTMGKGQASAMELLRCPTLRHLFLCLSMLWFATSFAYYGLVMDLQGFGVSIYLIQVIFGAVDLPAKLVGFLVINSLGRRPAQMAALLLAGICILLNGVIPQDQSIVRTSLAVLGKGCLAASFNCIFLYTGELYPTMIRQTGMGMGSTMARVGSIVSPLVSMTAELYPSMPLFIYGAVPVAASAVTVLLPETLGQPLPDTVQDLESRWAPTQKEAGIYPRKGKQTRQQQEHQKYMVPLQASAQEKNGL
# MAP kinase-interacting serine/threonine-protein kinase 1, sequence (Q9BUB5 whole entry): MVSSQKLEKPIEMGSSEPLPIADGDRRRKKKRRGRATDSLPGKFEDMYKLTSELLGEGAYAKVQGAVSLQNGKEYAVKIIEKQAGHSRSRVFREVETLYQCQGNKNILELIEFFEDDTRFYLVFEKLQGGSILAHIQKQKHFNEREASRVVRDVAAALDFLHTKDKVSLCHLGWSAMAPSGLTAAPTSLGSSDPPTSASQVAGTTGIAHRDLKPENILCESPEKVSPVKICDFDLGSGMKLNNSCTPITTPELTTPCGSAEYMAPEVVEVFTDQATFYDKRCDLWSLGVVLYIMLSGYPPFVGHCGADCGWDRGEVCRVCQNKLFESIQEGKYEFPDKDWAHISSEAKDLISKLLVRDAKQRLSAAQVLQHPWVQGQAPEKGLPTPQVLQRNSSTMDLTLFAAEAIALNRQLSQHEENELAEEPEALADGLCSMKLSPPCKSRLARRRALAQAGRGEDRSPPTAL
# Cytochrome P450 2C19, sequence (P33261 whole entry): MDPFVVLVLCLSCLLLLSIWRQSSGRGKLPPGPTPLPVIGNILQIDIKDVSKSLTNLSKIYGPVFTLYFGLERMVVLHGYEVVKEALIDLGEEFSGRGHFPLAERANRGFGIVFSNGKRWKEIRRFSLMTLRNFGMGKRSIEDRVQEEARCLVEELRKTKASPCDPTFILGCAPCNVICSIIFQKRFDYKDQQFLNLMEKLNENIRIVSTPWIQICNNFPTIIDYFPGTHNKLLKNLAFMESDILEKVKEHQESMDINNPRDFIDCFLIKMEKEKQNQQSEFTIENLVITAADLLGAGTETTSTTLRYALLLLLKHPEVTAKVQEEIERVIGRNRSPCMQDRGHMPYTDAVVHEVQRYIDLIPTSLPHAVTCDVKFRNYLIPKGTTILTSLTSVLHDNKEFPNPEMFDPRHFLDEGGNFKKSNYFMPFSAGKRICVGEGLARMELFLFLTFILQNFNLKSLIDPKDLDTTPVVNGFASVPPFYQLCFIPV
smiles,measurement,setting,value
CC(C)C[C@](C)(N)COc1ccc(-c2ccnc(C(F)F)c2)nc1C(F)F [PILAVAPADIN],IC50,[1],> 20 µM
same,IC50,[2],0.41 µM
same,AUC(0-inf),[3],6710 ng·h/mL
same,clearance,[4],41.2 mL/min/kg
same,Kp at 5.25 h,[5],20
same,half-life,[6],5.7 h
same,Cmax,[7],260 ng/mL
same,MRT,[8],11.6 h
same,Efficacy,[9],68%
same,concentration at 5.25 h,[10],16100 nM
same,Kp at 5.75 h,[11],43
same,Papp at 4 h,[12],72.4 ×10⁻⁶ cm/s
same,concentration at 5.5 h,[13],206 nM
same,IC50,[14],> 20 µM
same,IC50,[15],0.002 µM
same,"remaining at 10 min, 0.5 µM",[16],92%
same,IC50,[17],0.16 µM
same,AUC(0-inf),[18],980 ng·h/mL
same,IC50,[19],> 20 µM
same,IC50,[20],> 40 µM
same,AUC(0-inf),[21],880 ng·h/mL
same,IC50,[22],1.4 µM
same,AUC(0-inf),[23],5780 ng·h/mL
same,half-life,[24],> 2 h
same,AUC(0-inf),[25],1630 ng·h/mL
same,concentration at 5.75 h,[26],214 nM
same,"fraction unbound at 4 h, 1 µM",[27],0.007
same,"fraction unbound at 5 h, 10 µM",[28],0.053
same,IC50,[29],> 30 µM
same,IC50,[30],0.002 µM
same,bioavailability,[31],11%
same,Cmax,[32],200 ng/mL
same,Cmax,[33],5 nM
same,"fraction unbound at 5 h, 10 µM",[34],0.04
same,Vd,[35],19 L/kg
same,IC50,[36],> 20 µM
same,half-life,[37],> 2 h
same,Activity,[38],>60%
same,Vd,[39],11.8 L/kg
same,half-life,[40],8.7 h
same,Kp at 5.75 h,[41],19
same,Kp at 5.25 h,[42],21
same,Cmax,[43],200 nM
same,"Papp A→B at 2 h, 3 µM",[44],19.9 ×10⁻⁶ cm/s
same,AUC(0-inf),[45],1180 ng·h/mL
same,IC50,[46],> 20 µM

# Reference: ChEMBL document CHEMBL5046296 (J Med Chem, 2022)
